Experimental data taken from patent US9957271B2, “Substituted bicyclic aza-heterocycles and analogues as sirtuin modulators” (GlaxoSmithKline, LLC, priority 2012, dated 2018).

Biological target: T1, SIRT1 (Homo sapiens, UniProt Q96EB6)
T1 sequence (Q96EB6 1-747): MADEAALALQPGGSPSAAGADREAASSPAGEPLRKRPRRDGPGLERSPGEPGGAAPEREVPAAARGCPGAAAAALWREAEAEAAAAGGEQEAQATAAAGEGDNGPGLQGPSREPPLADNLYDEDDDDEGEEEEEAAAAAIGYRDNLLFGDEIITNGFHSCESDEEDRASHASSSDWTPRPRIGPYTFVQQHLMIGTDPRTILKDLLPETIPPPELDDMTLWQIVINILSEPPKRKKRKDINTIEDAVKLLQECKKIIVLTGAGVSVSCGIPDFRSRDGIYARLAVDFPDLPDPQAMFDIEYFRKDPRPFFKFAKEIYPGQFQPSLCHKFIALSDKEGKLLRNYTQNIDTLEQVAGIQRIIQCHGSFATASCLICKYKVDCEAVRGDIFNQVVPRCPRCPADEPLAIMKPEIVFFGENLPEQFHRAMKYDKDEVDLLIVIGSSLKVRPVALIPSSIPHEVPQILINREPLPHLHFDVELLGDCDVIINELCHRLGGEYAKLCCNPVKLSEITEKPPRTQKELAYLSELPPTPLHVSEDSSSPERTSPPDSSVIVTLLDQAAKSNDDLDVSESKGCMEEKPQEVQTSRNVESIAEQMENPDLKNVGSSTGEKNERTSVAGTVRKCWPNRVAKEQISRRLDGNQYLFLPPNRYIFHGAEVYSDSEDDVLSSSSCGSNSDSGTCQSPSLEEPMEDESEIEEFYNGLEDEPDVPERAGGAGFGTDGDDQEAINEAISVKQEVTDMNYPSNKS
Test: Trp mass spectrometry assay of SIRT1 activity
Format: biochemical
Settings: percent maximum fold activation of SIRT1; Trp peptide substrate; read-out: Trp % Fold Act
In short: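 His-tagged SIRT1 expressed in E. coli BL21(DE3), 10 nM, incubated 25 min at 25° C. with 0.5 μM Ac-RHKK(Ac)W-NH2 peptide and 120 μM βNAD+ in 50 mM HEPES pH 7.5, […], 1 mM DTT, 0.05% BSA; formic acid stop. OAADPR or deacetylated peptide measured by mass spectrometry; EC1.5 and percent maximum activation versus DMSO control.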

| Emax [%] | SMILES |
| --- | --- |
| ≥ 350 | O=C(Nc1cncc(F)c1)c1cnn2ccc(N3CCC(C(F)(F)F)C3)nc12 (centres unmarked) [Compound 1013] |
| ≥ 350 | O=C(Nc1cccnn1)c1cnn2ccc(N3CCC(C(F)(F)F)C3)nc12 (centres unmarked) [Compound 1014] |
| ≥ 350 | Cc1nc2ccc(N3CCC[C@H]3C(F)(F)F)nn2c1C(=O)Nc1ccccn1 [Compound 1015] |
| ≥ 350 | Cc1nc2ccc(N3CCC[C@H]3C(F)(F)F)nn2c1C(=O)Nc1cccnc1 [Compound 1016] |
| ≥ 350 | Cc1nc2ccc(N3CCC[C@H]3C(F)(F)F)nn2c1C(=O)Nc1cncc(F)c1 [Compound 1017] |
| ≥ 350 | Cc1nc2ccc(N3CCC[C@H]3C(F)(F)F)nn2c1C(=O)Nc1cccnn1 [Compound 1018] |
| ≥ 350 | O=C(Nc1cccnc1)c1cnc2ccc(N3CCC[C@@H]3C(F)(F)F)nn12 [Compound 1019] |
| ≥ 350 | Cn1cc2ccc(NC(=O)c3cnc4ccc(N5CCC[C@@H]5C(F)(F)F)nn34)cc2n1 [Compound 1020] |
| ≥ 350 | O=C(Nc1cccnn1)c1cnn2ccc(N3CCCCC3C(F)(F)F)nc12 (centres unmarked) [Compound 1021] |
| ≥ 350 | O=C(Nc1cccnn1)c1cnn2ccc(N3CCCC3C(F)(F)F)nc12 (centres unmarked) [Compound 1022] |
| ≥ 350 | O=C(Nc1cccnn1)c1cnn2ccc(N3CCCC(C(F)(F)F)C3)nc12 (centres unmarked) [Compound 1023] |
| ≥ 350 | COc1nccc(NC(=O)c2cnn3ccc(N4CCC[C@H]4C(F)(F)F)nc23)n1 [Compound 1024] |
| ≥ 350 | O=C(Nc1ccncn1)c1cnn2ccc(N3CCC[C@H]3C(F)(F)F)nc12 [Compound 1025] |
| ≥ 350 | O=C(Nc1cccnc1)c1cnn2ccc(N3CCC[C@H]3C(F)(F)F)nc12 [Compound 1026] |
| ≥ 350 | Cc1cncc(NC(=O)c2cnn3ccc(N4CCC[C@H]4C(F)(F)F)nc23)c1 [Compound 1027] |
| ≥ 350 | O=C(Nc1cncc(F)c1)c1cnn2ccc(N3CCC[C@H]3C(F)(F)F)nc12 [Compound 1028] |
| ≥ 350 | O=C(Nc1ccccn1)c1cnn2ccc(N3CCC[C@H]3C(F)(F)F)nc12 [Compound 1029] |
| ≥ 350 | O=C(Nc1cccnn1)c1cnn2ccc(N3CCC[C@H]3C(F)(F)F)nc12 [Compound 1030] |
| ≥ 350 | O=C(Nc1cnccn1)c1cnn2ccc(N3CCC[C@H]3C(F)(F)F)nc12 [Compound 1031] |
| ≥ 350 | Cc1nc(NC(=O)c2cnn3ccc(N4CCC[C@H]4C(F)(F)F)nc23)sc1C [Compound 1032, (S)-N-(4,5-dimethylthiazol-2-yl)-5-(2-(trifluoromethyl)pyrrolidin-1-yl)pyrazolo[1,5-a]pyrimidine-3-carboxamide] |
| ≥ 350 | Cc1nc(NC(=O)c2c(C)nn3ccc(N4CCC[C@H]4C(F)(F)F)nc23)sc1C [Compound 1033] |
| ≥ 350 | Cc1nn2ccc(N3CCC[C@H]3C(F)(F)F)nc2c1C(=O)Nc1cccnn1 [Compound 1034] |
| ≥ 350 | Cc1nn2ccc(N3CCC[C@H]3C(F)(F)F)nc2c1C(=O)Nc1ccccn1 [Compound 1035] |
| ≥ 350 | Cc1cncc(NC(=O)c2c(C)nn3ccc(N4CCC[C@H]4C(F)(F)F)nc23)c1 [Compound 1036] |

| Emax [%] | SMILES |
| --- | --- |
| ≥ 350 | CC1CCCN1c1ccn2ncc(C(=O)Nc3ccccn3)c2n1 (centres unmarked) [Compound 1037] |
| < 350 | Cc1nc(NC(=O)c2cnn3ccc(N4CCCC4C)nc23)sc1C (centres unmarked) [Compound 1038] |
| ≥ 350 | CC1CCCN1c1ccn2ncc(C(=O)Nc3cncc(F)c3)c2n1 (centres unmarked) [Compound 1039] |
| ≥ 350 | CC1CCCN1c1ccn2ncc(C(=O)Nc3cccnn3)c2n1 (centres unmarked) [Compound 1040] |
| < 350 | CC1CCCN1c1ccn2ncc(C(=O)Nc3cnccn3)c2n1 (centres unmarked) [Compound 1041] |
| < 350 | CC1CCCN1c1ccn2ncc(C(=O)Nc3ccncn3)c2n1 (centres unmarked) [Compound 1042] |
| < 350 | COc1nccc(NC(=O)c2cnn3ccc(N4CCCC4C)nc23)n1 (centres unmarked) [Compound 1043] |
| ≥ 350 | CC1CCCN1c1ccn2ncc(C(=O)Nc3cccnc3)c2n1 (centres unmarked) [Compound 1044] |
| < 350 | Cc1cncc(NC(=O)c2cnn3ccc(N4CCCC4C)nc23)c1 (centres unmarked) [Compound 1045] |
| ≥ 350 | Cc1nn2ccc(N3CCC[C@H]3C(F)(F)F)nc2c1C(=O)Nc1cnccn1 [Compound 1046] |
| ≥ 350 | Cc1nn2ccc(N3CCC[C@H]3C(F)(F)F)nc2c1C(=O)Nc1cccnc1 [Compound 1047] |
| ≥ 350 | Cc1nn2ccc(N3CCC[C@H]3C(F)(F)F)nc2c1C(=O)Nc1ccncn1 [Compound 1048] |
| ≥ 350 | COc1nccc(NC(=O)c2c(C)nn3ccc(N4CCC[C@H]4C(F)(F)F)nc23)n1 [Compound 1049] |
| ≥ 350 | Cc1nn2ccc(N3CCC[C@H]3C(F)(F)F)nc2c1C(=O)Nc1cncc(F)c1 [Compound 1050] |
| < 350 | COc1nccc(NC(=O)c2cnc3ccc(N4CCC[C@@H]4C)nn23)n1 [Compound 1051] |
| < 350 | C[C@H]1CCCN1c1ccc2ncc(C(=O)Nc3ccc(F)cn3)n2n1 [Compound 1052] |
| ≥ 350 | C[C@H]1CCCN1c1ccc2ncc(C(=O)Nc3ccccn3)n2n1 [Compound 1053] |
| < 350 | C[C@H]1CCCN1c1ccc2ncc(C(=O)Nc3cnccn3)n2n1 [Compound 1054] |
| ≥ 350 | C[C@H]1CCCN1c1ccc2ncc(C(=O)Nc3cccnn3)n2n1 [Compound 1055] |
| < 350 | C[C@H]1CCCN1c1ccc2ncc(C(=O)Nc3cccnc3)n2n1 [Compound 1056] |
| < 350 | C[C@H]1CCCN1c1ccc2ncc(C(=O)Nc3ccncn3)n2n1 [Compound 1057] |
| < 350 | Cc1cncc(NC(=O)c2cnc3ccc(N4CCC[C@@H]4C)nn23)c1 [Compound 1058] |
| < 350 | C[C@H]1CCCN1c1ccc2ncc(C(=O)Nc3cncc(F)c3)n2n1 [Compound 1059] |
| ≥ 350 | O=C(Nc1ccccn1)c1cnn2ccc(N3CCC(C(F)(F)F)CC3)nc12 [Compound 1060] |

| Emax [%] | SMILES |
| --- | --- |
| ≥ 350 | O=C(Nc1cnccn1)c1cnn2ccc(N3CCC(C(F)(F)F)CC3)nc12 [Compound 1061] |
| ≥ 350 | O=C(Nc1cccnn1)c1cnn2ccc(N3CCC(C(F)(F)F)CC3)nc12 [Compound 1062] |
| ≥ 350 | O=C(Nc1ccncn1)c1cnn2ccc(N3CCC(C(F)(F)F)CC3)nc12 [Compound 1063] |
| ≥ 350 | COc1nccc(NC(=O)c2cnn3ccc(N4CCC(C(F)(F)F)CC4)nc23)n1 [Compound 1064] |
| ≥ 350 | Cc1nc(NC(=O)c2cnn3ccc(N4CCC(C(F)(F)F)CC4)nc23)sc1C [Compound 1065] |
| ≥ 350 | O=C(Nc1cccnc1)c1cnn2ccc(N3CCC(C(F)(F)F)CC3)nc12 [Compound 1066] |
| ≥ 350 | O=C(Nc1cncc(F)c1)c1cnn2ccc(N3CCC(C(F)(F)F)CC3)nc12 [Compound 1067] |
| ≥ 350 | Cc1nn2ccc(N3CCC[C@@H]3C(F)(F)F)nc2c1C(=O)Nc1ccncn1 [Compound 1068] |
| ≥ 350 | Cc1nn2ccc(N3CCC[C@@H]3C(F)(F)F)nc2c1C(=O)Nc1cncc(F)c1 [Compound 1069] |
| ≥ 350 | Cc1nn2ccc(N3CCC[C@@H]3C(F)(F)F)nc2c1C(=O)Nc1ccccn1 [Compound 1070] |
| ≥ 350 | Cc1nn2ccc(N3CCC[C@@H]3C(F)(F)F)nc2c1C(=O)Nc1cccnc1 [Compound 1071] |
| ≥ 350 | Cc1cncc(NC(=O)c2c(C)nn3ccc(N4CCC[C@@H]4C(F)(F)F)nc23)c1 [Compound 1072] |
| ≥ 350 | Cc1cncc(NC(=O)c2cnn3ccc(N4CCC(C(F)(F)F)CC4)nc23)c1 [Compound 1073] |
| ≥ 350 | O=C(Nc1cc(-c2cnco2)ccn1)c1cnn2ccc(N3CCC(C(F)(F)F)CC3)nc12 [Compound 1074] |
| ≥ 350 | Cc1nn2ccc(N3CCC[C@@H]3C(F)(F)F)nc2c1C(=O)Nc1cccnn1 [Compound 1075] |
| ≥ 350 | O=C(Nc1cccnc1)c1cnn2ccc(N3CCC[C@@H]3C(F)(F)F)nc12 [Compound 1076] |
| ≥ 350 | Cc1cncc(NC(=O)c2cnn3ccc(N4CCC[C@@H]4C(F)(F)F)nc23)c1 [Compound 1077] |
| ≥ 350 | O=C(Nc1cnccn1)c1cnn2ccc(N3CCC[C@@H]3C(F)(F)F)nc12 [Compound 1078] |
| ≥ 350 | O=C(Nc1cccnn1)c1cnn2ccc(N3CCC[C@@H]3C(F)(F)F)nc12 [Compound 1079] |
| ≥ 350 | COc1nccc(NC(=O)c2cnn3ccc(N4CCC[C@@H]4C(F)(F)F)nc23)n1 [Compound 1080] |
| ≥ 350 | O=C(Nc1cccc(-c2cnco2)n1)c1cnn2ccc(N3CCC[C@@H]3C(F)(F)F)nc12 [Compound 1081] |
| ≥ 350 | Cc1nc(NC(=O)c2c(C)nn3ccc(N4CCC[C@@H]4C(F)(F)F)nc23)sc1C [Compound 1082] |
| ≥ 350 | O=C(Nc1cccc(-c2cnco2)n1)c1cnn2ccc(N3CCC(C(F)(F)F)CC3)nc12 [Compound 1083] |
